# Laboratory results as given in patent US5587373A, “2-acyloxycephem derivatives” (Farmitalia Carlo Erba S.r.l., priority 1993, dated 1996).
# Where two headings read alike, the source gives them in different places.
# Molecular target: T1, human leucocyte elastase (HLE) (Homo sapiens, UniProt P08246)
# T1 construct: purchased Calbiochem
# T1 sequence (P08246 30-267): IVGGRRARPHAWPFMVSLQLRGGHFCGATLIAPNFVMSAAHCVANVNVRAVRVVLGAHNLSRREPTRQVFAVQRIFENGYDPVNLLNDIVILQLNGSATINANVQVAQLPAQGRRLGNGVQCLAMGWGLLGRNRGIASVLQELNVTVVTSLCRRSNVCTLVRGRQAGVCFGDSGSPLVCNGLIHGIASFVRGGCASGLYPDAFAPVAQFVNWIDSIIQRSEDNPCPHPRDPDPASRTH
# Test: HLE (human leucocyte elastase) inhibition kinetics
# Type: biochemical
# Conditions: 37° C., pH 7.4; for kinact/KI: rate of formation of the HLE-inhibitor complex, read-out: "Efficacy" K5 /Ki
# Source text: Vs =steady state rate Vz =zero time rate Vo =rate at [I]=0 Km =Michaelis constant for the enzyme substrate pair (independently determined under the same experimental conditions). Full details of the Experimental Protocol are reported in […] et al., Eur. J. Med. Chem. 1992, 27, 875-890.
# [1] = Table 3, * outside determination limits
# [2] = Table 2, apparent dissociation constant of HLE-inhibitor complex at steady rate, read-out: Potency Ki^SS
# [3] = Table 3, * outside determination limits, read-out: "Potency" Ki ^33
SMILES,"""Efficacy"" K5 /K1 [1]",Ki [2],kinact/KI (Table 2),Ki [3]
"CO[C@H]1C(=O)N2C(C(=O)C(C)(C)C)=C(C)CS(=O)(=O)[C@H]12 [FCE 25500, reference compound]",,1.3 µM,60 M⁻¹ s⁻¹,
"CO[C@H]1C(=O)N2C(C(=O)c3ccccc3)=C(C)C(OC(=O)c3ccc(C(=O)O)cc3)S(=O)(=O)[C@H]12 (stereo partly drawn) [Compound 25, 4-Benzoyl-2-(4-carboxybenzoyl)oxy-7α-methoxy-3-methyl-3-cephem 1,1-dioxide]",29 M⁻¹ s⁻¹,,,34 µM
"CO[C@H]1C(=O)N2C(C(=O)c3ccccc3)=C(C)C(OC(=O)c3ccccc3)S(=O)(=O)[C@H]12 (stereo partly drawn) [Compound 24, 2-Benzoyloxy-7α-methoxy-3-methyl-4-phenylcarbonyl-3-cephem 1,1-dioxide]",8 M⁻¹ s⁻¹,,,
"CO[C@H]1C(=O)N2C(C(=O)N3CCCC3)=C(CSc3nc(=O)c(O)nn3C)CS(=O)(=O)[C@H]12 [L-659,286, reference compound]",,0.075 µM,9200 M⁻¹ s⁻¹,
"CO[C@H]1C(=O)N2C(C(=O)C(C)(C)C)=C(C)C(OC(=O)c3ccc(CSc4nc(=O)c(O)nn4C)cc3)S(=O)(=O)[C@H]12 (stereo partly drawn) [Compound 38, 4-tert-Butylcarbonyl-2-{4-[(2,5-dihydro-6-hydroxy-2-methyl-5-oxo-1,2,4-triazin-3-yl)thiomethyl]benzoyloxy}-7α-methoxy-3-methyl-3-cephem 1,1-dioxide]",< 2 M⁻¹ s⁻¹,,,700 µM
"CO[C@H]1C(=O)N2C(C(=O)C(C)(C)C)=C(C)C(OC(=O)c3ccc(C(=O)c4ccccc4)cc3)S(=O)(=O)[C@H]12 (stereo partly drawn) [Compound 83, 2-[4-(Benzoyl)benzoyloxy]-4-tert-butylcarbonyl-7α-methoxy-3-methyl-3-cephem 1,1-dioxide]",2 M⁻¹ s⁻¹,,,500 µM
"CO[C@H]1C(=O)N2C(C(=O)C(C)(C)C)=C(CSc3nnnn3C)C(OC(=O)c3ccccc3)S(=O)(=O)[C@H]12 (stereo partly drawn) [Compound 19, 2-Benzoyloxy-4-tert-butylcarbonyl-7α-methoxy-3-(1-methyl-1,2,3,4-tetrazol-5-yl)thiomethyl-3-cephem 1,1-dioxide]",< 2 M⁻¹ s⁻¹,,,

# Now from value to compound:
"""Efficacy"" K5 /K1 [1]",Ki [2],kinact/KI (Table 2),Ki [3],SMILES
< 2 M⁻¹ s⁻¹,,,,CO[C@H]1C(=O)N2C(C(=O)C(C)(C)C)=C(C)C(OC(=O)c3ccc4ccccc4c3)S(=O)(=O)[C@H]12 (stereo partly drawn) [Compound 11]
,< 0.002 µM,,,"CO[C@H]1C(=O)N2C(C(=O)C(C)(C)C)=C(C)C(OC(=O)c3ccccc3)S(=O)(=O)[C@H]12 (stereo partly drawn) [Compound 2, 2-Benzoyloxy-4-tert-butylcarbonyl-7α-methoxy-3-methyl-3-cephem 1,1-dioxide]"
< 2 M⁻¹ s⁻¹,,,,"CCCCC(CC)C(=O)OC1C(C)=C(C(=O)C(C)(C)C)N2C(=O)[C@H](OC)[C@H]2S1(=O)=O (stereo partly drawn) [Compound 96, 4-tert-Butylcarbonyl-2-(2-ethylhexanoyl)oxy-7α-methoxy-3-methyl-3-cephem 1,1-dioxide]"
